Results from patent US7662607B2, “Chalaropsis lysozyme protein and its method of use in anti-bacterial applications” (New Century Pharmaceuticals, Inc., priority 2003, dated 2010).

Columns and labels:
Staphylococcus cell wall = test: Lysozyme Ch activity, turbidimetric rate determination with Staphylococcus cell wall (absorbance at 600 nm); assay type: biochemical; details: 50 mM Sodium acetate Buffer, pH 4.8, 25° C.
Experimental: In one example, the Chalaropsis Lysozyme PEGylation was carried out using the steps as follows: (1) 15 mg of Chalaropsis Lysozyme and 1.05 g of Methoxypolyethylene glycol succinimidyl succinate (MPSS) was added into 0.1 M Sodium phosphate buffer to make final volume of 10 ml. (2) The mixture was allowed to shake on a rotator for 120 hours. The mixture was run on a SDS-PAGE to verify PEGylation (FIG. 1). (3) The mixture was concentrated with a YM-10 centriprep to a final volume of 1 ml. (4) The protein was loaded onto a XK16 column packed with Sephacryl S-300 resin. Fractions were collected every 2 min, i.e. 2 mls. (5) The following fractions are run on two gels (FIG. 2 and FIG. 3): • Gel1: MW, 28, 30, 35, 40, 45, 50, 55, 60, 65 • Gel2: MW, 70, 75, 80, 83, 85, 90, 95, 99, 105. (6) Based on the gel, it was decided that fractions around tube 55 was fully PEGylated, and thus fractions 53 to 57 were pooled and concentrated. (7) Activity was tested at 1 mg/ml for both native and PEGylated protein. […] PEGylation of Lysozyme Ch
Lysozyme Ch activity was measured with Staphylococcus cell wall in 50 mM Sodium acetate Buffer, pH 4.8 at 25° C. Absorbance at 600 nm is monitored for the turbidimetric rate determination on an Ultrospec 2000 spectrophotometer (Ref. 2).

[1] = system: Micrococcus lysodeikticus cells; test: HEW Lysozyme activity, turbidimetric rate determination with Micrococcus lysodeikticus cells (absorbance at 450 nm); assay type: biochemical; details: 50 mM Potassium Phosphate Buffer, pH 6.24, 25° C.
Experimental: HEW Lysozyme activity was tested with Micrococcus lysodeikticus cells in 50 mM Potassium Phosphate Buffer, pH 6.24 at 25° C. Absorbance at 450 nm is monitored for the turbidimetric rate determination on an Ultrospec 2000 spectrophotometer (ref).

| Molecule | Activity against Staphylococcus cell wall (Staphylococcus cell wall) | Activity with Micrococcus lysodeikticus cells (FIG. 6) [1] |
| --- | --- | --- |
| HEW Lysozyme: HEW Lysozyme used as a control | no activity | reduces the absorbance in a non-linear way |
| PEGylated HEW Lysozyme: HEW Lysozyme PEGylated with MPSS as a control experiment, with or without inhibitors |  | lost its entire activity |
| Lysozyme Ch: Lysozyme from fungus Chalaropsis species, N,O-diacetylmuramidase, corrected sequence SEQ ID NO:1 (protein, listed as Chalaropsis sp.) TVQGFDISSYQPSVNFAGAYSAGARFVIIKATEGTSYTNPSFSSQYTGATNAGFIRGGYHFAHPGETTGAAQADYFIAHGGGWSGDGITLPGMLDLESEGSNPACWGLSAASMVAWIKAFSDRYHAVTGRYPMLYTNPSWWSSCTGNSNAFVNTNPLVLARYASAPGTIPGGWPYQTIWQNSDAYAYGGDSNIFNGSADNLKKLATG | excellent activity |  |
